Test results from patent publication US20250275537A1, “CARBOXAMIDE APYRASE INHIBITORS” (Texas Crop Science, Inc., priority 2024, published 2025).

Legend:
apyrase = assay: Apyrase inhibition assay (Method 1); format: biochemical; settings: inhibitor conc at 1 mM stock, 10 μl per well; 1 hr room temperature; rounded average of at least two assay results
Method: Apyrase inhibitors useful as enhancers of pesticidal activity are assessed using an in vitro assay. The method of Windsor, Bio Techniques 33:1024-1030 (November 2002) was used as follows
96 well plates were used for the assay: (Greiner bio-one: REF-655901-96 well, PS, F-bottom, Clear, Non-binding)
• Reaction Buffer: 60 mM Hepes, 3 mM MgCl2, 3 mM CaCl2 and 3 mM ATP (pH 6.5) • Development Buffer A: 2% aqueous ammonium molybdate • Development Buffer B: 11% ascorbic acid in 37.5% TCA in water • Stop buffer C: 2% trisodium citrate in 2% acetic acid solution in water • Add 100 μl of reaction buffer to each well. • Add 10 μl of DMSO (control) or inhibitor/compound or compounds such as N1915 or orthovanadate to each well. (use inhibitor conc at 1 mM; orthovanadate at 2 mM and N1915 at 1 mM) • Add 10 μl of apyrase (concentration based on optimization —Dilute 1 U/μl enzyme to different concentrations such as 0.1U, 0.05U, 0.0025, 0.001U, 0.0005U—to find a good range) • Incubate plate at room temperature for 1 hr • Mix development buffer A and B in the ratio of 1:1.5 (just before use). • Add 50 ul of A:B mix in each well (incubate for 2 mins) • Add 50 ul of C in each well • Measure/Read Absorbance of plate @630 nm
Inhibitory data for the apyrase assay described above are provided for selected compounds in Table 3. In Table 3, D indicates inhibition of <10%.
With reference to Table 3, percent inhibition of apyrase is reported as the rounded average of at least two assay results.

[1] = test system: Brown Rust (Puccinia recondita) on wheat; assay: Greenhouse crop test: Brown Rust on wheat in combination with commercial fungicides (Method 3); format: in vivo; settings: Amistar 0.04 L/ha, evaluated at fourteen days
Method: In this method, exemplary compounds were evaluated for their ability to control Brown Rust (Puccinia recondita) on wheat, in a controlled greenhouse environment in combination with one of four fungicides, Amistar, Imtrex, Proline or Balaya. In these studies, JB Diego wheat plants were used. Seeds were sown in 9 cm diameter pots to a depth of 1 to 2 cm using Petersfield potting compost (75% medium grade peat, 12% screened sterilized loam, 3% medium grade vermiculite, 10% grit (5 mm screened, lime free), 1.5 kg PG mix per m3, lime to pH5.5-6.0 and wetting agent (Vitax Ultrawet 200 ml per m3) and germinated/grown at 23 C under a 16 h day/8 h night light regime. Plants were treated two to three weeks after sowing when they were at the BBCH 11 growth stage (first pair of true leaves (unifoliate) unfolded). Plants were inoculated with the Puccinia triticina (Brown rust on wheat plants) 24 hours after treatment. A track sprayer was used to treat the plants with the mixture of commercial fungicide and test compound using a water volume of 200 L/ha. […] Each plant was evaluated at fourteen days (once the disease symptoms were fully expressed) for % control of the disease. […] Also, each commercial fungicide was tested on its own as a part of each treatment, this being benchmark against which the experimental compounds were evaluated. […]

[2] = test system: Amaranthus retroflexus (pigweed); assay: Enhancement of herbicide activity: pre-emergence Amaranthus kill with metribuzin (Method 4); format: in vivo; settings: enhancer at 100 g/ha; for enhancement of metribuzin herbicidal activity: at seven and fourteen days
From the text: Small amounts of acetone were used to aid solubility. The pots were watered immediately after sowing and treatment and then allowed to stand in a glasshouse. Assessment of kill was made seven and fourteen days after treatment. The test included four replicates for each treatment and the control.

[3] = Assessed 7 DAT, metribuzin rate 50 g/ha
[4] = Assessed 7 DAT, metribuzin rate 100 g/ha
[5] = Assessed 7 DAT, metribuzin rate 200 g/ha
[6] = Assessed 14 DAT, metribuzin rate 50 g/ha
[7] = Assessed 14 DAT, metribuzin rate 100 g/ha
[8] = Assessed 14 DAT, metribuzin rate 200 g/ha

| SMILES | % Inhibition of Apyrase (apyrase) | other results |
| --- | --- | --- |
| O=C(c1ccc(C(=O)N2CCc3ccccc32)cc1)N1CCc2ccccc21 [Compound I-66, 1,4-phenylenebis(indolin-1-ylmethanone)] | A (A indicates inhibition above 30%) | additional Brown Rust disease control in combination with Amistar over Amistar alone [1]: greater than 20% |
| O=C(Nc1ccccc1Cl)c1ccccc1C(=O)Nc1ccccc1Cl [Compound I-14, N^1,N^2-bis(2-chloropheny)phthalamide] | A (A indicates inhibition above 30%) | Pre-Emergence Amaranthus Kill Percentage [2, 3]: 21.3%; Pre-Emergence Amaranthus Kill Percentage [2, 4]: 93.9%; Pre-Emergence Amaranthus Kill Percentage [2, 5]: 98.0%; Pre-Emergence Amaranthus Kill Percentage [2, 6]: 32.7%; Pre-Emergence Amaranthus Kill Percentage [2, 7]: 94.0%; Pre-Emergence Amaranthus Kill Percentage [2, 8]: 100.0%; enhancement of metribuzin herbicidal activity [2]: significant enhancement |
| COCc1cc(F)ccc1NC(=O)c1cccc(C(=O)Nc2ccc(F)cc2COC)c1 [Compound I-63, N^1,N^3-bis(4-fluoro-2-(methoxymethyl)phenyl)isophthalamide] | A (A indicates inhibition above 30%) | Pre-Emergence Amaranthus Kill Percentage [2, 3]: 2.0%; Pre-Emergence Amaranthus Kill Percentage [2, 4]: 34.0%; Pre-Emergence Amaranthus Kill Percentage [2, 5]: 96.3%; Pre-Emergence Amaranthus Kill Percentage [2, 6]: 4.1%; Pre-Emergence Amaranthus Kill Percentage [2, 7]: 34.0%; Pre-Emergence Amaranthus Kill Percentage [2, 8]: 98.2%; enhancement of metribuzin herbicidal activity [2]: significant enhancement |
| Cc1n[nH]c2cc(NC(=O)c3cccc(C(=O)Nc4ccc5c(C)n[nH]c5c4)c3)ccc12 [Compound I-19, N^1,N^3-bis(3-methyl-1H-indazol-6-yl)isophthalamide] | B (B indicates inhibition of from 20% to 30%) | – |
| CCOC(=O)c1ccc(NC(=O)c2cccc(C(=O)Nc3ccc(C(=O)OCC)cc3)c2)cc1 [Compound I-7, diethy 1 4,4′-(isophthaloylbis(azanediyl))dibenzoate] | A (A indicates inhibition above 30%) | – |
| COc1ccc(NC(=O)c2ccc(C(=O)Nc3ccc(OC)cc3OC)cc2)c(OC)c1 [Compound I-45, N^1,N^4-bis(2,4-dimethoxyphenyl)terephthalamide] | D (D indicates inhibition of <10%) | – |
| O=C(Nc1ccc(-c2c[nH]cn2)cc1)c1cccc(C(=O)Nc2ccc(-c3c[nH]cn3)cc2)c1 [Compound I-17, N^1,N^3-bis(4-(1H-imidazol-4-yl)phenyl)isophthalamide] | B (B indicates inhibition of from 20% to 30%) | – |
| CN(C(=O)c1ccccc1C(=O)Nc1cccc(C(F)(F)F)c1)C1CCCCC1 [Compound I-43, N^1-cyclohexyl-N^1-methyl-N^2-(3-(trifluoromethyl)phenyl)phthalamide] | D (D indicates inhibition of <10%) | – |
| O=C(Nc1ccccc1)c1cccc(C(=O)Nc2[nH]ncc2-c2ccc3c(c2)OCO3)c1 [Compound I-16, N1-(4-(benzo[d][1,3]dioxol-5-yl)-1H-pyrazol-5-yl)-N3-phenylisophthalamide] | B (B indicates inhibition of from 20% to 30%) | – |
| Cc1cccc(C)c1NC(=O)c1ccccc1C(=O)N(C)Cc1ccccc1 [Compound I-37, N^1-benzyl-N^2-(2,6-dimethylphenyl)-N1-methylphthalamide] | D (D indicates inhibition of <10%) | – |
| C#Cc1cccc(NC(=O)c2ccccc2C(=O)N2CCN(C)CC2)c1 [Compound I-58, N-(3-ethynylphenyl)-2-(4-methylpiperazine-1-carbonyl)benzamide] | D (D indicates inhibition of <10%) | – |
| CC(C)n1cc2ccc(NC(=O)c3ccc4c(c3)C(=O)NC4=O)cc2n1 [Compound I-24, N-(2-isopropyl-2H-indazol-6-yl)-1,3-dioxoisoindoline-5-carboxamide] | C (C indicates inhibition of from 10% to 20%) | – |
| O=C(Nc1ccccc1)c1ccc(C(=O)N[C@@H]2C[C@H]2c2ccccc2)cc1 [Compound I-42, N^1-phenyl-N^4-((1R,2S)-2-phenylcyclopropyl)terephthalamide] | D (D indicates inhibition of <10%) | – |
| CCCNC(=O)c1cccc(C(=O)Nc2cccc3cn[nH]c23)c1 [Compound I-57, N^1-(1H-indazol-7-yl)-N^3-propylisophthalamide] | D (D indicates inhibition of <10%) | – |
| O=C(Nc1ccccc1)c1ccc(C(=O)Nc2cc3n(n2)CCC3)cc1 [Compound I-34, N^1-(5,6-dihydro-4H-pyrrolo[1,2-b]pyrazol-2-yl)-N^4-phenylterephthalamide] | C (C indicates inhibition of from 10% to 20%) | – |
| O=C(Nc1ccccc1)c1cccc(C(=O)Nc2cccc(-c3nnn[nH]3)c2)c1 [Compound I-29, N^1-(3-(1H-tetrazol-5-yl)phenyl)-N^3-phenylisophthalamide] | C (C indicates inhibition of from 10% to 20%) | – |
| CSc1nnc(C(C)(C)C)c(=O)n1N [metribuzin, reference compound] | – | Pre-Emergence Amaranthus Kill Percentage [2, 3]: 0.0% |
| CCc1noc(C)c1Cn1c(=O)c2ccccc2c(=O)n1C [Compound I-21, 2-((3-ethyl-5-methylisoxazol-4-yl)methyl)-3-methyl-2,3-dihydrophthalazine-1,4-dione] | C (C indicates inhibition of from 10% to 20%) | – |
| CCNC(=O)c1cc(NC(=O)c2ccc(C(=O)Nc3ccccc3)cc2)nc2ccccc12 [Compound I-13, N^1-(4-(ethylcarbamoyl)quinolin-2-yl)-N^4-phenylterephthalamide] | B (B indicates inhibition of from 20% to 30%) | – |
| COc1cc(NC(=O)c2ccc(C(=O)Nc3cc(OC)cc(OC)c3)cc2)cc(OC)c1 [Compound I-20, N1,N4-bis(3,5-dimethoxyphenyl)terephthalamide] | C (C indicates inhibition of from 10% to 20%) | – |
| O=C(Nc1ccc2c(c1)OCCO2)c1ccc(C(=O)Nc2ccc3c(c2)OCCO3)cc1 [Compound I-6, N^1,N^4-bis(2,3-dihydrobenzo[b][1,4]dioxin-6-yl)terephthalamide] | A (A indicates inhibition above 30%) | – |
| O=C(Nc1ccc2c(c1)OCO2)c1ccc(C(=O)Nc2ccc3c(c2)OCO3)cc1 [Compound I-5, N^1,N^4-bis(benzo[d][1,3]dioxol-5-yl)terephthalamide] | A (A indicates inhibition above 30%) | – |
| COCC#CCn1c(=O)c2ccccc2c(=O)n1C [Compound I-31, 2-(4-methoxybut-2-yn-1-yl)-3-methyl-2,3-dihydrophthalazine-1,4-dione] | C (C indicates inhibition of from 10% to 20%) | – |
| CN(C(=O)c1ccccc1C(=O)Nc1ccc2c(c1)OCO2)C1CCCCC1 [Compound I-18, N^1-(benzo[d][1,3]dioxol-5-yl)-N^2-cyclohexyl-N^2-methylphthalamide] | B (B indicates inhibition of from 20% to 30%) | – |
